Columns and labels:
[1] = system: Vancomycin intermediate resistant S. aureus; experiment: MIC, micro-dilution broth, VISA; type: cell-based; settings: Staphylococcus aureus
Description: (§1) Test compounds were assayed in a micro-dilution broth format. Stock solutions were made by serially diluting the compounds using autoclaved millipore water or broth media. The antibacterial activity of the compounds was determined against gram positive bactreia like methicillin-resistant S. aureus (MRSA), vancomycin-intermediate-resistant S. aureus (VISA), vancomycin-sensitive E. faecium (VSE), vancomycin-resistant E. faecalis and vancomycin-resistant E. faecium (VRE). Antibacterial activity of dipicolyl-vancomycin conjugate conjugate (4) in combination with meropemem was determined against gram-negative bacteria such as K. pneumoniae ATCC BAA2146, clinical isolates K. pneumoniae R3949, K. pneumoniae R3934, E. coli R3336 and A. baumanii R676. Bacteria, to be tested, were grown for about 10 h in the suitable media, MRSA, VISA and gram negative bacteria were grown in Yeast-dextrose broth (about 1 g of beef extract, about 2 g of yeast extract, about 5 g of peptone and about 5 g of NaCl in about 1000 mL of sterile distilled water (pH-7)). For solid media, about 5% agar was used along with above mentioned composition. VSE and VRE were cultured in Brain Heart Infusion broth (Himedia). The bacterial samples were freeze dried and stored at −80° C. About 5 μL of these stocks were added to about 3 mL of the nutrient broth or Brain Heart Infusion broth and the culture was grown for about 6 h at about 37° C. prior to the experiments. This 6 h grown culture gives about 10^9 cfu/mL and this was determined by spread plating method. The 6 h grown culture was diluted to give effective cell concentration of about 10^5 cfu/mL which was then used for determining MIC. Compounds were serially diluted, in sterile water (2-fold dilution is employed) in a way that the working concentration was about 10 μM for MRSA, and VSE while for VRE, VISA and gram negative bacteria; it was about 100 μM. About 50 μL of these serial dilutions were added to the wells of 96 well plate followed by the addition of about 150 μL of bacterial solution. The plates were then incubated at about 37° C., 150 rpm in the incubator and O.D at 620 nm was recorded at an interval of about 24 h using TECAN (Infinite series, M200 pro) Plate Reader. Each concentration had triplicate values and the whole experiment was done at least twice and the MIC value was determined by taking the average of triplicate O.D. values for each concentration and plotting it against concentration. The data was then subjected to sigmoidal fitting.

[2] = system: Vancomycin-sensitive E. faecium (ATCC 19634); experiment: MIC, micro-dilution broth, VSEm; type: cell-based; settings: Enterococcus faecium, ATCC19634
Description: as §1

[3] = system: Vancomycin-resistant E. faecalis (VanA, ATCC 51575); experiment: MIC, micro-dilution broth, VREs; type: cell-based; settings: Enterococcus faecalis, ATCC51575
Description: as §1

[4] = system: NDM-1 expressing Escherichia coli R3336; experiment: microbe, parasite or virus in culture; type: cell-based; settings: Escherichia coli R3336
Description: as §1
(§2) Then, the antibacterial activities of Dipicolyl-vancomycin conjugate (4) is checked in combination with meropenem against New-Delhi β-lactamase producing gram negative bacteria such as K. pneumoniae BAA2146, clinical isolates K. pneumoniae R3949, K. pneumoniae R3934, E. coli R3336 and A. baumanii R676. […] Further we have also evaluated the antibacterial activity of dipicolyl-vancomycin conjugate (4) in presence of zinc sulphate, wherein it forms dipicolyl-vancomycin-zinc complex (5).

[5] = system: NDM-1 expressing Klebsiella pneumoniae ATCC BAA2146; experiment: microbe, parasite or virus in culture; type: cell-based; settings: Klebsiella pneumoniae ATCC BAA2146
Description: as §1, §2

[6] = system: NDM-1 expressing Klebsiella pneumoniae R3934; experiment: microbe, parasite or virus in culture; type: cell-based; settings: Klebsiella pneumoniae R3934
Description: as §1, §2

[7] = system: NDM-1 expressing Klebsiella pneumoniae R3949; experiment: microbe, parasite or virus in culture; type: cell-based; settings: Klebsiella pneumoniae R3949
Description: as §1, §2

[8] = system: meropenem-resistant NDM-1 K. pneumoniae R3934; experiment: Sepsis infection model in mice; type: in vivo; settings: CD-1 mice, i.p., 1 h and 24 h post-infection
Description: Sepsis infection model: About six-week-old, female CD-1 mice (weight, ˜19-24 g) were used for the experiments. Mice were infected intraperitoneally (i.p.) with a dose of ˜10^6 CFU/mouse of meropenem-resistant NDM-1 K. pneumoniae R3934. Then, mice were treated twice at 1 h and 24 h post-infection with a specified i.p. dose of either saline, meropenem (10 mg/kg), compound 4 (10 mg/kg), or a combination of compound 4 (10 mg/kg) and meropenem (10 mg/kg). Here, colistin (5 mg/kg) was used as a positive control. Mice were euthanized after 48 h post-infection and then liver, spleen, kidney and lungs were collected to find out the bacterial density in these organs. Organs were placed into 10 ml sterile saline on ice, and then homogenized. The dilutions of the homogenate were plated onto agar plates, which were incubated for 24 h at 37° C. The bacterial titer was expressed as log10 CFU/g of organ weight.

NDM-1 enzyme = molecular target: T1, NDM-1 enzyme (Klebsiella pneumoniae, UniProt C7C422); experiment: NDM-1 enzyme inhibition, nitrocefin substrate; type: biochemical
T1 construct: made in house; host or cells: E. coli BL21 (DE3)
T1 sequence (C7C422 29-270, looked up, species assumed): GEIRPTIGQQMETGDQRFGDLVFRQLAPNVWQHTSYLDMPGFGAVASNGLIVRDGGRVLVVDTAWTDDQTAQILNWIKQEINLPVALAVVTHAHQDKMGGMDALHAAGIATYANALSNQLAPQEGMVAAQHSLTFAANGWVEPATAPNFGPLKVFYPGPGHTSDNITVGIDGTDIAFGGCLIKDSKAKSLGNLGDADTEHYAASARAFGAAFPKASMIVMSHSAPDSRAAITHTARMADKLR
Description: The NDM-1 was produced by E. coli BL21 (DE3) carrying pET30a-NDM-1 in LB medium. Initially, the purified NDM-1 enzyme (5 nM, HEPES buffer, pH-7.4) was supplemented with 20 μM ZnSO4 for 30 min. Next, the enzyme was pre-incubated with the inhibitor (compound 4) for 20 min prior to the initiation of the assay by the addition of the substrate (Nitrocefin, 30 μM). Assays were read in 96-well microplate format at 490 nm (absorbance) using TECAN plate reader (Infinite Pro.) at 37° C. IC50s were deduced from a plot of percent loss of activity versus inhibitor concentration.

## CN[C@H](CC(C)C)C(=O)N[C@H]1C(=O)N[C@@H](CC(N)=O)C(=O)N[C@H]2C(=O)N[C@H]3C(=O)N[C@H](C(=O)N[C@H](C(=O)NCCCCCCN(Cc4ccccn4)Cc4ccccn4)c4cc(O)cc(O)c4-c4cc3ccc4O)[C@H](O)c3ccc(c(Cl)c3)Oc3cc2cc(c3O[C@H]2OC(CO)[C@H](O)C(O)C2O[C@H]2CC(C)(N)[C@H](O)C(C)O2)Oc2ccc(cc2Cl)[C@H]1O (some centres unmarked) [Compound 4, Dipicolyl-vancomycin conjugate]
[1]
  MIC: 0.4 µM
[2]
  MIC: 0.3 µM
[3]
  MIC: 2.5 µM
[4]
  MIC of Meropenem in presence of compound 4 at 12 μM: 12 µg/mL
[5]
  MIC of Meropenem in presence of compound 4 at 12 μM: 1.5 µg/mL
[6]
  MIC of Meropenem in presence of compound 4 at 12 μM: 3.1 µg/mL
[7]
  MIC of Meropenem in presence of compound 4 at 12 μM: 3.1 µg/mL
[8]; 10 mg/kg alone
  in-vivo antibacterial activity, bacterial titer in organs: did not show any activity
[8]; compound 4 (10 mg/kg) in combination with meropenem (10 mg/kg)
  in-vivo antibacterial activity, bacterial titer in organs: excellent antibacterial activity
NDM-1 enzyme
  IC50: ~6 µM
NDM-1 enzyme; nitrocefin as substrate
  effect on the activity of NDM-1: potent in-vitro dose-dependent inhibition

Source: patent US10626148B2, “Glycopeptides conjugates and uses thereof” (priority 2015, dated 2020)
